Measurements from ChEMBL document CHEMBL1145395, “De novo design of selective antibiotic peptides by incorporation of unnatural amino acids” (J Med Chem, 2007).
In brackets after ≈: the same amount, converted by molar mass. Activity calls are given as the source filed them. The calls are words filed in the database; no cut-off is given here. Non-standard residues stand in square brackets, D forms with d. Residues, ends and D or L forms follow the SMILES beside them. ξ: configuration not given here. Pro(3ξ,4ξ-(CH2)4) = O=C(O)[C@H]1NCC2CCCCC21; Oic = O=C(O)[C@@H]1C[C@@H]2CCCC[C@@H]2N1; Tic = O=C(O)[C@@H]1Cc2ccccc2CN1; ξTic = O=C(O)C1Cc2ccccc2CN1; Ahx = NCCCCCC(=O)O; GABA = NCCCC(=O)O

Assays:
Staphylococcus aureus = assay: Antibacterial activity against methicillin/gentamicin/tetracycline resistant Staphylococcus aureus ATCC 33592; type: functional
Bacillus subtilis = assay: Antibacterial activity against Bacillus subtilis ATCC 43223; type: functional
[1] = Toxicity to mouse RBC assessed as hemolytic activity at 100 uM; type: cell-based, Erythrocyte; details: red blood cells, read-out: Activity
Mycobacterium = assay: Antibacterial activity against Mycobacterium ranae ATCC 110; type: functional
[2] = Toxicity to mouse RBC assessed as hemolytic activity at 25 uM; type: cell-based, Erythrocyte; details: red blood cells, read-out: Activity
Salmonella typhimurium = assay: Antibacterial activity against Salmonella Typhimurium ATCC 13311; type: functional, Salmonella enterica subsp. enterica serovar Typhimurium; details: Salmonella enterica
Mus musculus [3] = assay: Acute toxicity in mouse at 25 mg/kg, ip after 6 days; type: organism-based; parameters: dose 25 mg/kg, route intraperitoneal; details: in vivo, 144 h
Mus musculus [4] = assay: Acute toxicity in mouse at 5 mg/kg, ip after 6 days; type: organism-based; parameters: dose 5 mg/kg, route intraperitoneal; details: in vivo, 144 h
Mus musculus [5] = assay: Acute toxicity in mouse at 1 mg/kg, ip after 6 days; type: organism-based; parameters: dose 1 mg/kg, route intraperitoneal; details: in vivo, 144 h

Structure (SMILES) | Activity (Staphylococcus aureus) | MIC (Bacillus subtilis) [µM] | hemolysis at 100 µM [1] [%] | MIC (Mycobacterium) [µM] | hemolysis at 25 µM [2] [%] | MIC (Salmonella typhimurium) [µM] | MIC (Staphylococcus aureus) [µM] | Activity (Mus musculus [3]) | Activity (Mus musculus [4]) | Activity (Mus musculus [5])
CC(=O)NCC(=O)N[C@@H](Cc1ccccc1)C(=O)N1Cc2ccccc2C[C@H]1C(=O)NCC(=O)N[C@@H](CCCCN)C(=O)N1Cc2ccccc2C[C@H]1C(=O)NCC(=O)N[C@@H](Cc1ccccc1)C(=O)N1Cc2ccccc2C[C@H]1C(=O)NCC(=O)N[C@H](CCCCN)C(=O)N1Cc2ccccc2C[C@H]1C(=O)N[C@@H](CCCCN)C(=O)N[C@@H](CCCCN)C(=O)N[C@@H](CCCCN)C(=O)N[C@@H](CCCCN)C(N)=O | inactive | 10 (≈ 19.9 µg/mL) | 6 | 30 (≈ 59.6 µg/mL) | 4.9 | 100 (≈ 199 µg/mL) | – | – | – | –
CC(=O)NCCCCCC(=O)N[C@@H](Cc1ccccc1)C(=O)N1Cc2ccccc2C[C@H]1C(=O)N1CC2CCCCC2[C@H]1C(=O)NCCCCCC(=O)N[C@@H](CCCCN)C(=O)N1Cc2ccccc2C[C@H]1C(=O)N1CC2CCCCC2[C@H]1C(=O)NCCCCCC(=O)N[C@@H](Cc1ccccc1)C(=O)N1Cc2ccccc2C[C@H]1C(=O)N1CC2CCCCC2[C@H]1C(=O)NCCCCCC(=O)N[C@@H](CCCCN)C(=O)N1Cc2ccccc2C[C@H]1C(=O)N[C@@H](CCCCN)C(=O)N[C@@H](CCCCN)C(=O)N[C@@H](CCCCN)C(=O)N[C@@H](CCCCN)C(N)=O (some centres not stated) (Ac-[Ahx]F[Tic][Pro(3ξ,4ξ-(CH2)4)][Ahx]K[Tic][Pro(3ξ,4ξ-(CH2)4)][Ahx]F[Tic][Pro(3ξ,4ξ-(CH2)4)][Ahx]K[Tic]KKKK-NH2) | – | 1 (≈ 2.67 µg/mL) | 44.7 | 3 (≈ 8 µg/mL) | 26.6 | 10 (≈ 26.7 µg/mL) | 10 (≈ 26.7 µg/mL) | – | – | –
CC(=O)NCCCC(=O)N[C@@H](Cc1ccccc1)C(=O)N1Cc2ccccc2C[C@H]1C(=O)N1[C@H](C(=O)NCCCC(=O)N[C@@H](CCCCN)C(=O)N2Cc3ccccc3C[C@H]2C(=O)N2[C@H](C(=O)NCCCC(=O)N[C@@H](Cc3ccccc3)C(=O)N3Cc4ccccc4C[C@H]3C(=O)N3[C@H](C(=O)NCCCC(=O)N[C@@H](CCCCN)C(=O)N4Cc5ccccc5C[C@H]4C(=O)N[C@@H](CCCCN)C(=O)N[C@@H](CCCCN)C(=O)N[C@@H](CCCCN)C(=O)N[C@@H](CCCCN)C(N)=O)C[C@@H]4CCCC[C@@H]43)C[C@@H]3CCCC[C@@H]32)C[C@@H]2CCCC[C@@H]21 (Ac-[GABA]F[Tic][Oic][GABA]K[Tic][Oic][GABA]F[Tic][Oic][GABA]K[Tic]KKKK-NH2) | – | – | 10.8 | – | 1 | – | – | Non-toxic | Non-toxic | Non-toxic
CC(=O)N[C@@H](Cc1ccccc1)C(=O)N1Cc2ccccc2C[C@H]1C(=O)N1CC2CCCCC2[C@H]1C(=O)N[C@@H](CCCCN)C(=O)N1Cc2ccccc2C[C@H]1C(=O)N1CC2CCCCC2[C@H]1C(=O)N[C@@H](Cc1ccccc1)C(=O)N1Cc2ccccc2C[C@H]1C(=O)N1CC2CCCCC2[C@H]1C(=O)N[C@@H](CCCCN)C(=O)N1Cc2ccccc2C[C@H]1C(=O)N[C@@H](CCCCN)C(=O)N[C@@H](CCCCN)C(=O)N[C@@H](CCCCN)C(=O)N[C@@H](CCCCN)C(N)=O (some centres not stated) (Ac-F[Tic][Pro(3ξ,4ξ-(CH2)4)]K[Tic][Pro(3ξ,4ξ-(CH2)4)]F[Tic][Pro(3ξ,4ξ-(CH2)4)]K[Tic]KKKK-NH2) | – | 1 (≈ 2.21 µg/mL) | 86.8 | 30 (≈ 66.4 µg/mL) | 50 | 10 (≈ 22.1 µg/mL) | 3 (≈ 6.64 µg/mL) | Non-toxic | Non-toxic | Non-toxic
CC(=O)N[C@@H](Cc1ccccc1)C(=O)N1Cc2ccccc2C[C@H]1C(=O)N1CC2CCCCC2[C@H]1C(=O)N[C@@H](CCCCN)C(=O)N1Cc2ccccc2C[C@H]1C(=O)N1CC2CCCCC2[C@H]1C(=O)N[C@@H](Cc1ccccc1)C(=O)N1Cc2ccccc2C[C@H]1C(=O)N1CC2CCCCC2[C@H]1C(=O)N[C@@H](CCCCN)C(=O)N1Cc2ccccc2C[C@H]1C(=O)N[C@@H](CCCCN)C(=O)N[C@@H](CCCCN)C(=O)N[C@@H](CCCCN)C(=O)N[C@@H](CCCCN)C(=O)N[C@@H](CCCCN)C(=O)N[C@@H](CCCCN)C(N)=O (some centres not stated) (Ac-F[Tic][Pro(3ξ,4ξ-(CH2)4)]K[Tic][Pro(3ξ,4ξ-(CH2)4)]F[Tic][Pro(3ξ,4ξ-(CH2)4)]K[Tic]KKKKKK-NH2) | – | 1 (≈ 2.47 µg/mL) | 41.3 | 3 (≈ 7.41 µg/mL) | 33.5 | 10 (≈ 24.7 µg/mL) | 3 (≈ 7.41 µg/mL) | – | – | –
CC(=O)NCC(=O)N1Cc2ccccc2C[C@H]1C(=O)N1CC2CCCCC2[C@H]1C(=O)N[C@@H](CCCCN)C(=O)N1Cc2ccccc2C[C@H]1C(=O)N1CC2CCCCC2[C@H]1C(=O)NCC(=O)N1Cc2ccccc2CC1C(=O)N1CC2CCCCC2[C@H]1C(=O)N[C@@H](CCCCN)C(=O)N1Cc2ccccc2C[C@H]1C(=O)N[C@@H](CCCCN)C(=O)N[C@@H](CCCCN)C(=O)N[C@@H](CCCCN)C(=O)N[C@@H](CCCCN)C(N)=O (some centres not stated) (Ac-G[Tic][Pro(3ξ,4ξ-(CH2)4)]K[Tic][Pro(3ξ,4ξ-(CH2)4)]G[ξTic][Pro(3ξ,4ξ-(CH2)4)]K[Tic]KKKK-NH2) | – | 1 (≈ 2.03 µg/mL) | 26.7 | 3 (≈ 6.1 µg/mL) | 9.2 | 10 (≈ 20.3 µg/mL) | 10 (≈ 20.3 µg/mL) | Non-toxic | Non-toxic | Non-toxic
NCCCC[C@H](NC(=O)[C@H](CCCCN)NC(=O)[C@H](CCCCN)NC(=O)[C@H](CCCCN)NC(=O)[C@@H]1Cc2ccccc2CN1C(=O)[C@H](CCCCN)NC(=O)CNC(=O)[C@@H]1C[C@@H]2CCCC[C@@H]2N1C(=O)[C@@H]1Cc2ccccc2CN1C(=O)[C@H](Cc1ccccc1)NC(=O)CNC(=O)[C@@H]1C[C@@H]2CCCC[C@@H]2N1C(=O)[C@@H]1Cc2ccccc2CN1C(=O)[C@H](CCCCN)NC(=O)CNC(=O)[C@@H]1C[C@@H]2CCCC[C@@H]2N1C(=O)[C@@H]1Cc2ccccc2CN1C(=O)[C@H](Cc1ccccc1)NC(=O)CN)C(N)=O (H-GF[Tic][Oic]GK[Tic][Oic]GF[Tic][Oic]GK[Tic]KKKK-NH2) | – | – | 33.4 | – | 14.3 | – | – | – | – | –
CC(=O)NCC(=O)N[C@@H](Cc1ccccc1)C(=O)N1CC2CCCCC2[C@H]1C(=O)NCC(=O)N[C@@H](CCCCN)C(=O)N1CC2CCCCC2[C@H]1C(=O)NCC(=O)N[C@@H](Cc1ccccc1)C(=O)N1CC2CCCCC2[C@H]1C(=O)NCC(=O)N[C@@H](CCCCN)C(=O)N[C@@H](CCCCN)C(=O)N[C@@H](CCCCN)C(=O)N[C@@H](CCCCN)C(=O)N[C@@H](CCCCN)C(N)=O (some centres not stated) (Ac-GF[Pro(3ξ,4ξ-(CH2)4)]GK[Pro(3ξ,4ξ-(CH2)4)]GF[Pro(3ξ,4ξ-(CH2)4)]GKKKKK-NH2) | – | – | 5.9 | – | 3.2 | – | – | – | – | –
CC(=O)NCC(=O)N[C@@H](Cc1ccccc1)C(=O)N1Cc2ccccc2C[C@H]1C(=O)N1CC2CCCCC2[C@H]1C(=O)NCC(=O)N[C@@H](CCCCN)C(=O)N1Cc2ccccc2C[C@H]1C(=O)N1CC2CCCCC2[C@H]1C(=O)NCC(=O)N[C@@H](Cc1ccccc1)C(=O)N1Cc2ccccc2C[C@H]1C(=O)N1CC2CCCCC2[C@H]1C(=O)NCC(=O)N[C@@H](CCCCN)C(=O)N1Cc2ccccc2C[C@H]1C(=O)N[C@@H](CCCCN)C(=O)N[C@@H](CCCCN)C(=O)N[C@@H](CCCCN)C(=O)N[C@@H](CCCCN)C(=O)N[C@@H](CCCCN)C(N)=O (some centres not stated) (Ac-GF[Tic][Pro(3ξ,4ξ-(CH2)4)]GK[Tic][Pro(3ξ,4ξ-(CH2)4)]GF[Tic][Pro(3ξ,4ξ-(CH2)4)]GK[Tic]KKKKK-NH2) | – | – | 24.9 | – | 18.9 | – | – | – | – | –
CC(=O)NCC(=O)N[C@@H](Cc1ccccc1)C(=O)NCC(=O)N1CC2CCCCC2[C@H]1C(=O)NCC(=O)N[C@@H](CCCCN)C(=O)NCC(=O)N1CC2CCCCC2[C@H]1C(=O)NCC(=O)N[C@@H](Cc1ccccc1)C(=O)NCC(=O)N1CC2CCCCC2[C@H]1C(=O)NCC(=O)N[C@@H](CCCCN)C(=O)NCC(=O)N[C@@H](CCCCN)C(=O)N[C@@H](CCCCN)C(=O)N[C@@H](CCCCN)C(=O)N[C@@H](CCCCN)C(N)=O (some centres not stated) (Ac-GFG[Pro(3ξ,4ξ-(CH2)4)]GKG[Pro(3ξ,4ξ-(CH2)4)]GFG[Pro(3ξ,4ξ-(CH2)4)]GKGKKKK-NH2) | – | – | 3.3 | – | 3.3 | – | – | – | – | –
CC(=O)NCC(=O)N[C@@H](Cc1ccccc1)C(=O)N1Cc2ccccc2C[C@H]1C(=O)NCC(=O)NCC(=O)N[C@@H](CCCCN)C(=O)N1Cc2ccccc2C[C@H]1C(=O)NCC(=O)NCC(=O)N[C@@H](Cc1ccccc1)C(=O)N1Cc2ccccc2C[C@H]1C(=O)NCC(=O)NCC(=O)N[C@@H](CCCCN)C(=O)N1Cc2ccccc2C[C@H]1C(=O)N[C@@H](CCCCN)C(=O)N[C@@H](CCCCN)C(=O)N[C@@H](CCCCN)C(=O)N[C@@H](CCCCN)C(N)=O (Ac-GF[Tic]GGK[Tic]GGF[Tic]GGK[Tic]KKKK-NH2) | inactive | 10 (≈ 21.6 µg/mL) | 5.7 | 30 (≈ 64.8 µg/mL) | 3.8 | 100 (≈ 216 µg/mL) | – | – | – | –
CC(=O)NCC(=O)N[C@@H](Cc1ccccc1)C(=O)N[C@@H](Cc1ccccc1)C(=O)N1CC2CCCCC2[C@H]1C(=O)NCC(=O)N[C@@H](CCCCN)C(=O)N[C@@H](Cc1ccccc1)C(=O)N1CC2CCCCC2[C@H]1C(=O)NCC(=O)N[C@@H](Cc1ccccc1)C(=O)N[C@@H](Cc1ccccc1)C(=O)N1CC2CCCCC2[C@H]1C(=O)NCC(=O)N[C@@H](CCCCN)C(=O)N[C@@H](Cc1ccccc1)C(=O)N[C@@H](CCCCN)C(=O)N[C@@H](CCCCN)C(=O)N[C@@H](CCCCN)C(=O)N[C@@H](CCCCN)C(N)=O (some centres not stated) (Ac-GFF[Pro(3ξ,4ξ-(CH2)4)]GKF[Pro(3ξ,4ξ-(CH2)4)]GFF[Pro(3ξ,4ξ-(CH2)4)]GKFKKKK-NH2) | – | – | 27.3 | – | 8.9 | – | – | – | – | –
